We go through one molecule from patent publication US20230183808A1, “Methods of Detecting and Treating Cancers Characterized by Loss of miR15 and miR16 Expression” (priority 2020, published 2023).

Each structure is given as a SMILES string.

One assay relates to miR-15b. Kind of assay: miR-15b expression by qRT-PCR after 5-Aza-2′-deoxycytidine treatment. It counts as cell-based, human. The settings on record: 5 µM (MEG-01, THP-1, OCI-AML3) or 2.5 µM (U-937, MV4-11), 4 days; in a few cell lines; vs untreated; FIG. 5F. As to the method: (§1) FIGS. 5A-5F show genetic and epigenomic screening of AML cell lines. […] TBP was used as a loading control (TATA-binding protein). […] In FIGS. 5C and 5E, at least 3 clones are analyzed for each cell line. The CpG island is pictured and each vertical bar represent a single CpG (depicted by *) or a single non-CpG site. Black (CpG site) and grey (non-CpG site) squares represent methylated CpG and white squares represent unmethylated CpG.
(§2) Total RNA was isolated from human samples and cell lines using TRIzol (Invitrogen, Carlsbad, CA), following the provided instructions. For qRT-PCR, TaqMan miRNA assays (miR-15a#000389, miR-15b#000390, miR-16#000391, (Thermo Fisher Scientific, Waltham, MA)) were used to detect mature miRNAs. For all RNAs from AML patients, reverse transcription reactions were performed using the TaqMan miRNA Reverse Transcription Kit (Applied Biosystems, Foster City, CA) and a RT primer pool by pooling all miRNA-specific stem-loop primers of interest. […]
(§3) MEG-01, THP-1 and OCI-AML3 cells were treated with 5 µM 5-Aza-2′-deoxycytidine (5-Aza-dC) (Sigma-Aldrich, St. Louis, MO), whereas U-937 and MV4-11 cells were treated with 2.5 µM 5-Aza-dC. After 4 days of treatments (fresh drug was added every 24 hour), cells were harvested and total RNA was isolated and analyzed for qRT-PCR analysis. […]

Another assay deals with miR-15a. Nature of the assay: miR-15a expression by qRT-PCR after 5-Aza-2′-deoxycytidine treatment. The assay is classed as cell-based, human. The following applies: 5 µM (MEG-01, THP-1, OCI-AML3) or 2.5 µM (U-937, MV4-11), 4 days; in a few cell lines; vs untreated; FIG. 5D. As to the method:
as §1, §2, §3

Consider `Nc1ncn([C@H]2C[C@H](O)[C@@H](CO)O2)c(=O)n1` [5-Aza-dC, 5-Aza-2′-deoxycytidine], for which, in the assay with miR-15b, the “expression of silenced miR-15b after treatment” value is “increased expression”. In addition, the “expression of silenced miR-15a after treatment” value with miR-15a was “increased expression”.
